Experiments:
[1] = molecular target: T1, Chemerin-like receptor 1 (Homo sapiens) (UniProt Q99788); details: CAL1
T1 sequence (whole entry): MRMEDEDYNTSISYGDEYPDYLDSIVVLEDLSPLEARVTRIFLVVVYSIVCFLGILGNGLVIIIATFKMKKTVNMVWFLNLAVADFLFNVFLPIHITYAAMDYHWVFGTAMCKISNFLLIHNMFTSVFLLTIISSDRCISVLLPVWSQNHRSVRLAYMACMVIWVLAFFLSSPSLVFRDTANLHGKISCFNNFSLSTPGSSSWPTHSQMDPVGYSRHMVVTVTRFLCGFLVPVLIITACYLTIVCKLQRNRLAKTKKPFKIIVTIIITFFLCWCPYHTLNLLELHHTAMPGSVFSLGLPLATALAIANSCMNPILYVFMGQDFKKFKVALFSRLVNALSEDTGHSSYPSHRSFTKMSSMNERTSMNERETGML

[2] = Drug concentration in cynomolgus monkey plasma at 1 mg/kg, po after 8 hrs; format: ADME, organism-based, Macaca fascicularis
[3] = Cmax in cynomolgus monkey at 1 mg/kg, po; format: ADME, organism-based, Macaca fascicularis; set-up: dose 1 mg/kg, route po; details: in vivo
[4] = AUC(0 to infinity) in cynomolgus monkey at 1 mg/kg, po; format: ADME, organism-based, Macaca fascicularis; set-up: time infinity, dose 1 mg/kg, route po; details: in vivo
[5] = Tmax in cynomolgus monkey at 1 mg/kg, po; format: ADME, organism-based, Macaca fascicularis; details: in vivo
[6] = Half life in cynomolgus monkey at 1 mg/kg, po; format: ADME, organism-based, Macaca fascicularis; details: in vivo
[7] = MRT in cynomolgus monkey at 1 mg/kg, po; format: ADME, organism-based, Macaca fascicularis; details: in vivo
[8] = molecular target: T2, Chemerin-like receptor 1 (Homo sapiens, UniProt Q99788); assay: Inhibition of human ChemR23 expressed in CAL-1 cells assessed as reduction in chemerin-induced calcium signaling; format: functional, cell-based, CAL1
T2 sequence (Q99788 whole entry): T1 sequence (whole entry)

[9] = molecular target: T2, Chemerin-like receptor 1; assay: Inhibition of human ChemR23 expressed in CAL-1 cells assessed as receptor internalization; format: functional, cell-based, CAL1
[10] = Cmax in cynomolgus monkey at 0.3 to 1 mg/kg, po; format: ADME, organism-based, Macaca fascicularis; set-up: route po; details: in vivo, dose 0.3-1 mg/kg
[11] = Tmax in cynomolgus monkey at 0.3 to 1 mg/kg, po; format: ADME, organism-based, Macaca fascicularis; details: in vivo, dose 0.3-1 mg/kg
[12] = Half life in cynomolgus monkey at 0.3 to 1 mg/kg, po; format: ADME, organism-based, Macaca fascicularis; details: in vivo, dose 0.3-1 mg/kg
[13] = AUC(0 to infinity) in cynomolgus monkey at 0.3 to 1 mg/kg, po; format: ADME, organism-based, Macaca fascicularis; set-up: route po; details: in vivo, dose 0.3-1 mg/kg
[14] = MRT in cynomolgus monkey at 0.3 to 1 mg/kg, po; format: ADME, organism-based, Macaca fascicularis; details: in vivo, dose 0.3-1 mg/kg
[15] = Cmax in cynomolgus monkey at 0.3 mg/kg, po; format: ADME, organism-based, Macaca fascicularis; set-up: dose 0.3 mg/kg, route po; details: in vivo
[16] = Drug concentration in cynomolgus monkey plasma at 0.3 mg/kg, po after 8 hrs; format: ADME, organism-based, Macaca fascicularis
[17] = Tmax in cynomolgus monkey at 0.3 mg/kg, po; format: ADME, organism-based, Macaca fascicularis; details: in vivo
[18] = Half life in cynomolgus monkey at 0.3 mg/kg, po; format: ADME, organism-based, Macaca fascicularis; details: in vivo
[19] = AUC(0 to infinity) in cynomolgus monkey at 0.3 mg/kg, po; format: ADME, organism-based, Macaca fascicularis; set-up: time infinity, dose 0.3 mg/kg, route po; details: in vivo
[20] = MRT in cynomolgus monkey at 0.3 mg/kg, po; format: ADME, organism-based, Macaca fascicularis; details: in vivo

Work on `Cc1ccc(-c2nc(=O)o[nH]2)c(-c2ccc([C@@H](C)N(CC3CC3)c3nc(C(=O)NS(=O)(=O)C4CC4)c(-c4ccncc4)s3)cc2)c1` yielded an IC80 [1] of 74 nM.

For `Cc1sc(N(CC2CC2)[C@H](C)c2ccc(-c3cc(Cl)ccc3-c3nc(=O)o[nH]3)cc2)nc1C(=O)NS(=O)(=O)C1(C)CC1`, the IC80 [1] was 110 nM.

In the case of `Cc1ccc(-c2nc(=O)o[nH]2)c(-c2ccc([C@@H](C)N(CC3CC3)c3nc(C(=O)NS(=O)(=O)C4CC4)c(-c4cccnc4)s3)cc2)c1`, the IC80 [1] is reported as 39 nM.

With `CONC(=O)c1ccc(C)cc1-c1ccc([C@@H](C)N(CC2CC2)c2nc(C(=O)NS(=O)(=O)C3CC3)c(C3CC3)s2)cc1` the concentration at 8 h [2] was 1010 ng/mL, the Cmax [3] was 3480 ng/mL and the AUC(0-inf) [4] was 24000 ng·h/mL. It also gave a Tmax [5] of 3.3 h, a half-life [6] of 2.9 h and an MRT [7] of 5.9 h. For the same molecule, the IC80 [1] was 38 nM.

`C[C@H](c1ccc(-c2cc(Cl)ccc2C(=O)NCCOCCOCCOCCOCCOCCOCCOCCOCCOCCOCCOCCOCCOCCOCCOCCOCCOCCOCCOCOCCOCCOCCOCCN=[N+]=[N-])cc1)N(CC1CC1)c1nc(C(=O)NS(=O)(=O)C2CC2)c(C2CC2)s1` gave an IC50 [8] of 100 nM and an EC50 [9] of 380 nM.

In the case of `Cc1ccc(-c2nc(=O)s[nH]2)c(-c2ccc([C@@H](C)N(CC3CC3)c3nc(C(=O)NS(=O)(=O)C4CC4)c(C4CC4)s3)cc2)c1`, the concentration at 8 h [2] is reported as 2090 ng/mL, the Cmax [3] is reported as 4190 ng/mL and the AUC(0-inf) [4] is reported as 39800 ng·h/mL. It also gave a Tmax [5] of 4 h, a half-life [6] of 3.2 h and an MRT [7] of 6.5 h.

With `Cc1sc(N(CC2CC2)[C@H](C)c2ccc(-c3cc(Cl)ccc3-c3nc(=O)o[nH]3)cc2)nc1C(=O)O` the concentration at 8 h [2] was 7.9 ng/mL, the Cmax [3] was 646 ng/mL and the AUC(0-inf) [4] was 2210 ng·h/mL.

`Cc1ccc(-c2nc(=O)o[nH]2)c(-c2ccc([C@@H](C)N(CC3CC3)c3nc(C(=O)NS(=O)(=O)C4CC4)c(C(C)C)s3)cc2)c1` gave a concentration at 8 h [2] of 1140 ng/mL, a Cmax [10] of 5670 ng/mL and a Tmax [11] of 4 h. For the same molecule, the half-life [12] was 2.4 h, the AUC(0-inf) [13] was 33800 ng·h/mL and the MRT [14] was 5.2 h. It also gave an IC80 [1] of 18 nM.

For `Cc1ccc(-c2nc(=O)o[nH]2)c(-c2ccc([C@@H](C)N(CC3CC3)c3nc(C(=O)NS(=O)(=O)C4CC4)c(C)s3)cc2)c1`, the concentration at 8 h [2] was 233 ng/mL, the Cmax [10] was 3180 ng/mL and the Tmax [11] was 3.3 h. It also gave a half-life [12] of 2.1 h, an AUC(0-inf) [13] of 12500 ng·h/mL and an MRT [14] of 4.2 h. The IC80 [1] was 53 nM.

`C[C@H](c1ccc(-c2cc(Cl)ccc2C(=O)NCCOCCOCCOCCOCCOCCOCCn2nnc3c2-c2ccccc2N(C(=O)CCNC(=O)CCOCCOCCOCCOCCNC(=O)CCCC[C@@H]2SC[C@@H]4NC(=O)N[C@@H]42)Cc2ccccc2-3)cc1)N(CC1CC1)c1nc(C(=O)NS(=O)(=O)C2CC2)c(C2CC2)s1` showed an IC50 [8] of 14 nM.

`CONC(=O)c1ccc(Cl)cc1-c1ccc([C@@H](C)N(CC2CC2)c2nc(C(=O)NS(=O)(=O)C3CC3)c(C3CC3)s2)cc1` showed a Cmax [15] of 484 ng/mL, a concentration at 8 h [16] of 116 ng/mL and a Tmax [17] of 2.7 h. The half-life [18] was 3.3 h, the AUC(0-inf) [19] was 3290 ng·h/mL and the MRT [20] was 5.3 h.

Molecule `C[C@H](c1ccc(-c2cc(Cl)ccc2C(=O)NCCOCCOCCOCCOCCOCCOCCN=[N+]=[N-])cc1)N(CC1CC1)c1nc(C(=O)NS(=O)(=O)C2CC2)c(C2CC2)s1` has an IC50 [8] of 12 nM and an EC50 [9] of 22 nM.

`CCc1sc(N(CC2CC2)[C@H](C)c2ccc(-c3cc(C)ccc3-c3nc(=O)o[nH]3)cc2)nc1C(=O)NS(=O)(=O)C1CC1` showed a concentration at 8 h [2] of 85.7 ng/mL, a Cmax [10] of 5970 ng/mL and a Tmax [11] of 1.7 h. For the same molecule, the half-life [12] was 3 h, the AUC(0-inf) [13] was 10300 ng·h/mL and the MRT [14] was 2.9 h. For the same molecule, the IC80 [1] was 63 nM.

`C[C@H](c1ccc(-c2cc(Cl)ccc2C(N)=O)cc1)N(CC1CC1)c1nc(C(=O)NS(=O)(=O)C2CC2)c(C2CC2)s1` gave a Cmax [15] of 730 ng/mL, a concentration at 8 h [16] of 68.9 ng/mL and a Tmax [17] of 1.3 h. For the same molecule, the half-life [18] was 1.8 h, the AUC(0-inf) [19] was 2950 ng·h/mL and the MRT [20] was 3.4 h. For the same molecule, the IC80 [1] was 9.8 nM.

In the case of `CCCc1sc(N(CC2CC2)[C@H](C)c2ccc(-c3cc(C)ccc3-c3nc(=O)o[nH]3)cc2)nc1C(=O)NS(=O)(=O)C1CC1`, the IC80 [1] is reported as 25 nM.

In the case of `Cc1ccc(-c2nc(=O)o[nH]2)c(-c2ccc([C@@H](C)N(CC3CC3)c3nc(C(=O)NS(=O)(=O)C4CC4)c(CC(C)C)s3)cc2)c1`, the concentration at 8 h [2] is reported as 772 ng/mL, the Cmax [10] is reported as 4250 ng/mL and the Tmax [11] is reported as 2.7 h. It also gave a half-life [12] of 2.3 h, an AUC(0-inf) [13] of 21900 ng·h/mL and an MRT [14] of 4.9 h. For the same molecule, the IC80 [1] was 42 nM.

With `Cc1sc(N(CC2CC2)[C@H](C)c2ccc(-c3cc(Cl)ccc3-c3nc(=O)o[nH]3)cc2)nc1C(=O)NS(=O)(=O)C1CC1` the concentration at 8 h [2] was 18 ng/mL, the Cmax [3] was 1210 ng/mL and the AUC(0-inf) [4] was 3740 ng·h/mL.

— ChEMBL document CHEMBL5154705, “Discovery and mechanistic study of thiazole-4-acylsulfonamide derivatives as potent and orally active ChemR23 inhibitors with a long-acting effect in cynomolgus monkeys” (Bioorg Med Chem, 2022)
